This experiment relates to PMA-induced release of HB-EGF from PBMCs from healthy donors. As to the kind of experiment: ELISA-based HB-EGF release assay, PBMCs from healthy donors. The conditions noted are these: Homo sapiens, PBMC; recombinant murine antibodies 1 μg/ml; Batimastat 10 μM; PMA 25 ng/ml, 6 hours. Format: cell-based. The method, then: In the following study, ELISA-based HB-EGF release assays were performed to analyze the inhibitory effects of the antibodies of the present disclosure on PMA-induced release of endogenous HB-EGF from primary human material obtained from healthy donors using peripheral blood mononuclear cells (PBMCs).
In brief, on day 1, Nunc black MaxiSorp® 96-well plates (Thermo Fisher Scientific, USA) were coated overnight with 100 μl per well of mouse anti-human HB-EGF capture antibody (provided as part of the DuoSet ELISA kit) at 4 μg/ml TBS at 4° C. On day 2, the capture antibody solution was removed and MaxiSorp® plates were blocked with 300 μl per well of TBS, 1% BSA at room temperature for 3 hours. […] Using an infinite M1000 (Tecan Group, Switzerland) microplate reader, the fluorescence of each well was collected at an excitation wavelength of 435 nm and an emission wavelength of 555 nm.

In the case of `CNC(=O)[C@H](Cc1ccccc1)NC(=O)[C@H](CC(C)C)[C@H](CSc1cccs1)C(=O)NO` [Batimastat], the inhibition at 10 µM worked out at 94.9%.

Values taken from patent US20240174744A1, “METHODS OF TREATMENT USING PROTEIN BINDERS TO IRHOM2 EPITOPES” (SCIRHOM GMBH, priority 2021, published 2024).
